This passage reports IC50 results from patent US9840503B2, “Heterocyclic compounds and uses thereof” (Incyte Corporation, priority 2015, dated 2017).

In general, IC50 refers to the concentration needed to halve the response being measured.

Holding throughout (format): biochemical
One assay addresses AXL (Homo sapiens (Human), UniProt P30530). The assay can be described thus: TAM Enzymatic Assay (HTRF), AXL. The settings on record: 13.8 nM AXL, 100 uM ATP, 60 min room temperature. As for the experimental part:
(§1) The assay buffer contained 50 mM HEPES, pH7.5, 10 mM MgCl2, 1 mM EGTA, 0.01% NP-40 and 2 mM DTT. 0.5 ul test compounds dissolved in DMSO were transferred from compound plates to white 384-well assay plates (Greiner […] plates). […] A 1 mM stock solution of peptide substrate Biotin-[…]-amide (Quality Controlled Biochemicals, MA) dissolved in DMSO was diluted to 1 uM in assay buffer containing 100 uM ATP (for AXL and c-MER assays) or 20 uM ATP (for TYRO3 assay). 10 ul enzyme solution (or assay buffer for the enzyme blank) was added to the appropriate wells in each plate, and then 10 ul/well substrate solution was added to initiate the reaction. The plate was protected from light and incubated at room temperature for 60 min. […] The plate was incubated for 1 h at room temperature, and HTRF (homogenous time resolved fluorescence) signal was measured on a PHERAstar FS plate reader (BMG labtech). Percentage of inhibition was calculated for each concentration and IC50 value was generated from curve fitting with GraphPad Prism software.
On the technique in general: TR-FRET usually uses a lanthanide donor and a delayed reading to cut background.

A further assay addresses c-MER (Homo sapiens (Human), UniProt Q12866). Nature of the assay: TAM Enzymatic Assay (HTRF), c-MER. The settings on record: 4.1 nM c-MER, 100 uM ATP, 60 min room temperature. The method, then:
as §1

The next assay deals with TYRO3 (Homo sapiens (Human), UniProt Q06418). Nature of the assay: TAM Enzymatic Assay (HTRF), TYRO3. The settings on record: 0.366 nM TYRO3, 20 uM ATP, 60 min room temperature. As for the experimental part: as §1
TYRO3, sequence (Q06418 41-890): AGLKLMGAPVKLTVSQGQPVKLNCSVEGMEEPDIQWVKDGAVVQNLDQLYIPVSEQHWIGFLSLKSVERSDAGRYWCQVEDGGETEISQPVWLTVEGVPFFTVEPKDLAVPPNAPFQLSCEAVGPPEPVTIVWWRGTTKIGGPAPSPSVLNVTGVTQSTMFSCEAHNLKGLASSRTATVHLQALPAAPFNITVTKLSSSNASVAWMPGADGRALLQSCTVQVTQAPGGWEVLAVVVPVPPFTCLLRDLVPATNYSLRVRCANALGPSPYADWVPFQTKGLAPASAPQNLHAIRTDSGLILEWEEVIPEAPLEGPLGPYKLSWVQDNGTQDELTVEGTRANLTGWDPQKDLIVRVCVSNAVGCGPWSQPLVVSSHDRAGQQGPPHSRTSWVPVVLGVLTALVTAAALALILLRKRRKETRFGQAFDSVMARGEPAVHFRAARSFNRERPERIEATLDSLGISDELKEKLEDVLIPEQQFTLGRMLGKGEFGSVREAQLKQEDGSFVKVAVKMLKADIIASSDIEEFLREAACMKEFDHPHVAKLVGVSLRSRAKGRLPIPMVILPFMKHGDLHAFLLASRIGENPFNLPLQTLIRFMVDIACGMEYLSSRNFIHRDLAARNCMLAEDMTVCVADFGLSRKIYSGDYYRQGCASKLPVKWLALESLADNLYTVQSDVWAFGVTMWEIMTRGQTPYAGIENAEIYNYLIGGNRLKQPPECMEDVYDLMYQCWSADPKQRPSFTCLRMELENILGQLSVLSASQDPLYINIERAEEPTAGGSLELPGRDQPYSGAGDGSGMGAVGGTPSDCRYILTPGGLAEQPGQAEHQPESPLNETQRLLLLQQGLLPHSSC

c-MER, sequence (Q12866 21-999): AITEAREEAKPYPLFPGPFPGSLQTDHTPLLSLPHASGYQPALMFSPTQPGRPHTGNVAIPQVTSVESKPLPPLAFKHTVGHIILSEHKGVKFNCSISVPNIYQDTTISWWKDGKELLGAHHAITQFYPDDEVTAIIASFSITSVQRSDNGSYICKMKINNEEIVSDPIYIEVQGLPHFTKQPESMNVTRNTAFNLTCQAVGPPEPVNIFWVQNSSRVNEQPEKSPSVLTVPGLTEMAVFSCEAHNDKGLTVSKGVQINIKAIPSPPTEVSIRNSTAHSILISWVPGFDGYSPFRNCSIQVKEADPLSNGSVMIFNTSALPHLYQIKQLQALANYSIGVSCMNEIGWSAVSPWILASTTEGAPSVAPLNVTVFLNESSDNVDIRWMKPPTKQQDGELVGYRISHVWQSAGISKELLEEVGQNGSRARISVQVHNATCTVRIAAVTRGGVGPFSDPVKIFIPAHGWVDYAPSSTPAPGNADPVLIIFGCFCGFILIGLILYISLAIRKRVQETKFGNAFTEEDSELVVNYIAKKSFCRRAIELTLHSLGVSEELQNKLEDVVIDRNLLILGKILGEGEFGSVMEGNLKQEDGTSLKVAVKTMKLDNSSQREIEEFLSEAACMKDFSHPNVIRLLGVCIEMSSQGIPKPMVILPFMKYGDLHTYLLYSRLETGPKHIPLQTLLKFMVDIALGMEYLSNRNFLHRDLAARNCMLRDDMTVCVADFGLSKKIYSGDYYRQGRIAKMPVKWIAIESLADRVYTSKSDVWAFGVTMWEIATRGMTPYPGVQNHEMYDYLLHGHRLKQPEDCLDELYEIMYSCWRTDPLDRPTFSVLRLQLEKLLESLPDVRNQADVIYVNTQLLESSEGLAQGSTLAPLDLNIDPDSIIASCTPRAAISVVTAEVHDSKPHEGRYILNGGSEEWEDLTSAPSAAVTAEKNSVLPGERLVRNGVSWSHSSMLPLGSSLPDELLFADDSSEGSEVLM
AXL, sequence (P30530 26-894): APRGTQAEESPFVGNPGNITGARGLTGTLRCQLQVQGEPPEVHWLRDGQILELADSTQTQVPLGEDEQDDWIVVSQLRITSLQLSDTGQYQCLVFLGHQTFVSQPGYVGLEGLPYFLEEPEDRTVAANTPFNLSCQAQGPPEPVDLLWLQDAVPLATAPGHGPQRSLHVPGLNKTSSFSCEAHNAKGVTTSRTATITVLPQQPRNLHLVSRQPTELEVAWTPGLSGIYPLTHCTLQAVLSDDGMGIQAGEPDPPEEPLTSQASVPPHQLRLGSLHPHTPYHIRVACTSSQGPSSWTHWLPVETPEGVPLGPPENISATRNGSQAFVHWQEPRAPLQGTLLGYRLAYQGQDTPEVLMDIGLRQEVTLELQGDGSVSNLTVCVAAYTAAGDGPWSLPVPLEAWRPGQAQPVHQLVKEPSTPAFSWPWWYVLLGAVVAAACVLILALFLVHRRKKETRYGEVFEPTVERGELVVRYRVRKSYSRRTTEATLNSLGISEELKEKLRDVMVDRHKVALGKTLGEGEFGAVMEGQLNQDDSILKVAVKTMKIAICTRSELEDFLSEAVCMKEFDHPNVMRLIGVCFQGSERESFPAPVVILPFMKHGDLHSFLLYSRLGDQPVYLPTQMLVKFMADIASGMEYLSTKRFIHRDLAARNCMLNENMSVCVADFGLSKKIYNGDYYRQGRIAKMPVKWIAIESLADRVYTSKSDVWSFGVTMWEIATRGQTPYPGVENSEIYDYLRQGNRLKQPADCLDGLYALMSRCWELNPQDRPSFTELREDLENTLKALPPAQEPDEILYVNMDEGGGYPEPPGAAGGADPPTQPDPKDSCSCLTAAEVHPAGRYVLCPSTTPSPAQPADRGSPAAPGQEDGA

In turn, `CCCCNc1ncc2c(n1)N([C@H]1CC[C@H](O)CC1)Cc1cc(CN3CCOCC3)ccc1-2` [Example 1, trans-4-[3-(Butylamino)-8-(morpholin-4-ylmethyl)pyrimido[4,5-c]isoquinolin-5(6H)-yl]cyclohexanol] came in with an IC50 on AXL greater than 1000 nM.

Turning to `CCCCNc1ncc2c3ccc(CNC4CCCCC4)cc3c(=O)n([C@H]3CC[C@H](O)CC3)c2n1` [Example 2, 3-(Butylamino)-8-[(cyclohexylamino)methyl]-5-(trans-4-hydroxycyclohexyl)pyrimido[4,5-c]isoquinolin-6(5H)-one], the 50% inhibitory concentration (IC50) against c-MER and at TYRO3 was less than 100 nM in each case.

In the case of `CCCCNc1ncc2c(n1)N([C@H]1CC[C@H](O)CC1)Cc1cc(CNC3CCCCC3)ccc1-2` [Example 3, trans-4-[3-(Butylamino)-8-[(cyclohexylamino)methyl]pyrimido[4,5-c]isoquinolin-5(6H)-yl]cyclohexanol], the IC50 against AXL, on c-MER and at TYRO3 was less than 100 nM throughout.

As for `CCCCNc1ncc2c3ccc(CNC4CCOCC4)cc3c(=O)n([C@H]3CC[C@H](O)CC3)c2n1` [Example 4, 3-(Butylamino)-5-(trans-4-hydroxycyclohexyl)-8-[(tetrahydro-2H-pyran-4-ylamino)methyl]pyrimido[4,5-c]isoquinolin-6(5H)-one], the values for the IC50 on AXL, on c-MER and against TYRO3 were greater than 1000 nM, less than 100 nM and 100 to 1000 nM, respectively.

On AXL, `CCCCNc1ncc2c3ccc(CNCCO)cc3c(=O)n([C@H]3CC[C@H](O)CC3)c2n1` [Example 5, 3-(Butylamino)-5-(trans-4-hydroxycyclohexyl)-8-{[(2-hydroxyethyl)amino]methyl}pyrimido [4,5-c]isoquinolin-6(5H)-one] had an IC50 greater than 1000 nM.

For the compound `CCCCNc1ncc2c3ccc(CNC4CCCCC4)cc3c(=O)n([C@H]3CC[C@H](N)CC3)c2n1` [Example 6, 5-(trans-4-aminocyclohexyl)-3-(butylamino)-8-((cyclohexylamino)methyl)pyrimido[4,5-c]isoquinolin-6(5H)-one], the IC50 against c-MER and against TYRO3 was less than 100 nM each time.

Compound `CCCCNc1ncc2c3ccc(-c4cnn(C)c4)cc3c(=O)n([C@H]3CC[C@H](O)CC3)c2n1` [Example 7, 3-(Butylamino)-5-(trans-4-hydroxycyclohexyl)-8-(1-methyl-1H-pyrazol-4-yl)pyrimido[4,5-c]isoquinolin-6(5H)-one] gave an IC50 at AXL greater than 1000 nM.

Take `CCCCNc1ncc2c3ccc(-c4c(F)cccc4F)cc3c(=O)n([C@H]3CC[C@H](O)CC3)c2n1` [Example 8, 3-(Butylamino)-8-(2,6-difluorophenyl)-5-(trans-4-hydroxycyclohexyl)pyrimido[4,5-c]isoquinolin-6(5H)-one]: the IC50 on AXL, against c-MER and against TYRO3 was greater than 1000 nM in each case.

For `CCCCNc1ncc2c(n1)N([C@H]1CC[C@H](N)CC1)Cc1cc(CNC3CCCCC3)ccc1-2` [Example 9, 5-(trans-4-Aminocyclohexyl)-N-butyl-8-[(cyclohexylamino)methyl]-5,6-dihydropyrimido [4,5-c]isoquinolin-3-amine], the IC50 against AXL, against c-MER and against TYRO3 was less than 100 nM each time.

In the case of `CCCCNc1ncc2c(n1)N([C@H]1CC[C@H](N)CC1)Cc1cc(CNC3CCOCC3)ccc1-2` [Example 10, 5-(trans-4-Aminocyclohexyl)-N-butyl-8-{[(tetrahydropyran-4-yl)amino]methyl}-5,6-dihydropyrimido[4,5-c]isoquinolin-3-amine], the 50% inhibitory concentration (IC50) against c-MER and against TYRO3 was less than 100 nM in each case.

As for `CCCCNc1ncc2c(n1)N([C@H]1CC[C@H](N)CC1)Cc1cc(CNC3CCCC3)ccc1-2` [Example 11, 5-(trans-4-aminocyclohexyl)-N-butyl-8-((cyclopentylamino)methyl)-5,6-dihydropyrimido[4,5-c]isoquinolin-3-amine], the IC50 against c-MER and against TYRO3 was less than 100 nM each time.
